In patent publication US20230265098A1, “ALKYNE QUINAZOLINE DERIVATIVES AS INHIBITORS OF ERBB2” (EnLiven Therapeutics, Inc., priority 2020, published 2023):

Key:
[1] = biological target: T1, Ba/F3 ERBB2-P780_Y781insGSP (Homo sapiens, UniProt P04626, DUP778-780, cells depend on it); test: Cell viability assay (CellTiter Glo); format: cell-based, mouse; conditions: 72 hours; 3000 cells per well, 96-well plates; read-out: Cell viability IC50, nM, Ba/F3 ERBB2-P780_Y781insGSP
T1 construct: Ba/F3 cell lines were engineered to express human ERBB2 or EGFR kinases, rendering the cells IL-3 independent
Description: (§1) Cells were treated with compounds, and cell viability was measured as a metric of kinase inhibition.
(§2) The Ba/F3 cell line is IL-3-dependent mouse cell line derived from the C3H mouse strain. Ba/F3 cell lines were engineered to express human ERBB2 or EGFR kinases, rendering the cells IL-3 independent. The lines were generated via retroviral transduction utilizing a Moloney murine leukemia virus (MMLV) promoter, and constructs are stably integrated into the cell genome.
(§3) Similarly, Ba/F3 cell lines engineered to express EGFR, ERBB2, or ERBB2 mutants were grown, harvested, counted and seeded at 3000 cells per well in 96-well plates for the data sets shown in Tables B3-B4, and seeded at 300 cells per well in 384-well plates for the data set shown in Table B5. A subset of wells contained media only (low control, “LC”).
(§4) Table B2 provides the growth media and number of cells seeded per well for the each cell line.
(§5) Compounds were dissolved in DMSO and serially diluted. Serially-diluted compound or a DMSO only control (high control, “HC”) was added to the plated cells in each well. […] The final proportion of DMSO never exceeded 0.1%.
Plates were placed in a 37° C., 5% CO2 incubator for 72 hours. Plates were then removed from the incubator and equilibrated for 15 minutes at room temperature. 40 IA of CellTiter Glo reagent (Promega) was added to measure the relative level of metabolically active cells by quantifying intracellular ATP concentrations. Plates were incubated for 30 minutes at room temperature, and luminescence was measured. […] Graphical curves were fitted using a nonlinear regression model with a sigmoidal dose response.

[2] = biological target: T2, phosphorylated ERBB2 (pERBB2) (Homo sapiens, UniProt P04626); test: Detection of phosphorylated ERBB2 (pERBB2) by ELISA in BT-474 cells; format: cell-based; conditions: four hours incubation with compound, OD 450 nm
T2 construct: endogenous in cells; host or cells: BT-474
Description: BT-474 cells were seeded into a 96-well at 2.0*10^4 cells/100 μl/well.
Compounds were dissolved and serially diluted in DMSO. The compounds were then were added, mixed, and incubated for four hours at 37° C., 5% CO2. Compounds were added using four-fold dilutions at final concentrations ranging from 10 μM to 0.01 nM.
Following the four hour incubation with compounds, cell lysates were prepared. Plates were centrifuged for 5 min at 3000 RPM, and supernatant was removed from each well. Cells were washed 3 times by resuspension in 150 μl PBS, followed by centrifugation and removal of the supernatant, as above. […] Cells were incubated with lysis buffer for 1 hour at 4° C., and then stored at −80° C.
Enzyme-linked immunosorbent assays (ELISA) were performed to measure phosphorylated ERBB2 levels. […] The next day, plates were washed with PBS+0.05% Tween20 (PBST). 150 μl of 5% BSA blocking solution was added for 1 hour at room temperature, with shaking. Plates were washed with PBST. Cell lysates were thawed and 100 μl of lysate was added to the ELISA plate. The plates were incubated for 2 hours at room temperature, with shaking. […] Plates were incubated for 1 hour at room temperature, with shaking. Plates were then washed with PBST, and 100 μl TMB substrate solution (R&D Systems, cat #DY999) was added. Plate were incubated in the dark for 20 minutes at room temperature. 50 μl of Stop solution (R&D Systems, cat #DY994) (50 μl) was added to each well and mixed.
Optical density at 450 nm was read on an EnSpire plate reader (Perkin Elmer). The remaining kinase activity by calculated using the following formula: % Relative activity=100×(A450sample−A450LC)/(A450HC−A450LC). The low and high control values (“LC” and “HC”) were generated from lysate from wells without cells or with cells treated with 0.1% DMSO, respectively.

[3] = biological target: T3, Ba/F3 ERBB2-T798M (Homo sapiens, UniProt P04626, T798M, cells depend on it); test: Cell viability assay (CellTiter Glo); format: cell-based, mouse; conditions: 72 hours; 3000 cells per well, 96-well plates; read-out: Cell viability IC50, nM, Ba/F3 ERBB2-T798M
T3 construct: Ba/F3 cell lines were engineered to express human ERBB2 or EGFR kinases, rendering the cells IL-3 independent
Description: as §1, §2, §3, §4, §5
(§6) Plates were placed in a 37° C., 5% CO2 incubator for 72 hours. Plates were then removed from the incubator and equilibrated for 15 minutes at room temperature. 40 IA of CellTiter Glo reagent (Promega) was added to measure the relative level of metabolically active cells by quantifying intracellular ATP concentrations. Plates were incubated for 30 minutes at room temperature, and luminescence was measured. Percent viability was normalized to a vehicle control only using the following formula: % viability=100×(LumSample−LumLC) (LumHC−LumLC). Graphical curves were fitted using a nonlinear regression model with a sigmoidal dose response.

[4] = biological target: T4, Ba/F3 ERBB2-V777_G778insGC (Homo sapiens, UniProt P04626, INS778CG, cells depend on it); test: Cell viability assay (CellTiter Glo); format: cell-based, mouse; conditions: 72 hours; 3000 cells per well, 96-well plates; read-out: Cell viability IC50, nM, Ba/F3 ERBB2-V777_G778insGC
T4 construct: Ba/F3 cell lines were engineered to express human ERBB2 or EGFR kinases, rendering the cells IL-3 independent
Description: as §1, §2, §3, §4, §5, §6

[5] = biological target: T5, Ba/F3 ERBB2-L755S (Homo sapiens, UniProt P04626, L755S, cells depend on it); test: Cell viability assay (CellTiter Glo); format: cell-based, mouse; conditions: 72 hours; 3000 cells per well, 96-well plates; read-out: Cell viability IC50, nM, Ba/F3 ERBB2-L755S
T5 construct: Ba/F3 cell lines were engineered to express human ERBB2 or EGFR kinases, rendering the cells IL-3 independent
Description: as §1, §2, §3, §4, §5, §6

[6] = biological target: T6, Ba/F3 ERBB2 A775_G776insYVMA (Homo sapiens, UniProt P04626, DUP772-775, cells depend on it); test: Cell viability assay (CellTiter Glo); format: cell-based, mouse; conditions: 72 hours; 3000 cells per well, 96-well plates (Tables B3-B4); read-out: Cell viability IC50, nM, Ba/F3 ERBB2 A775_G776insYVMA
T6 construct: Ba/F3 cell lines were engineered to express human ERBB2 or EGFR kinases, rendering the cells IL-3 independent
Description: as §1, §2, §3, §4, §5, §6

[7] = biological target: T7, Ba/F3 ERBB2 wt (Homo sapiens, UniProt P04626); test: Cell viability assay (CellTiter Glo); format: cell-based, mouse; conditions: 72 hours; 3000 cells per well, 96-well plates; read-out: Cell viability IC50, nM, Ba/F3 ERBB2 wt
T7 construct: Ba/F3 cell lines were engineered to express human ERBB2 or EGFR kinases, rendering the cells IL-3 independent
Description: as §1, §2, §3, §4, §5, §6

[8] = biological target: T8, Ba/F3 ERBB2-V777L (Homo sapiens, UniProt P04626, V777L, cells depend on it); test: Cell viability assay (CellTiter Glo); format: cell-based, mouse; conditions: 72 hours; 3000 cells per well, 96-well plates; read-out: Cell viability IC50, nM, Ba/F3 ERBB2-V777L
T8 construct: Ba/F3 cell lines were engineered to express human ERBB2 or EGFR kinases, rendering the cells IL-3 independent
Description: as §1, §2, §3, §4, §5, §6

[9] = biological target: T9, Ba/F3 ERBB2-L869R (Homo sapiens, UniProt P04626, L869R, cells depend on it); test: Cell viability assay (CellTiter Glo); format: cell-based, mouse; conditions: 72 hours; 3000 cells per well, 96-well plates; read-out: Cell viability IC50, nM, Ba/F3 ERBB2-L869R
T9 construct: Ba/F3 cell lines were engineered to express human ERBB2 or EGFR kinases, rendering the cells IL-3 independent
Description: as §1, §2, §3, §4, §5, §6

[10] = biological target: T10, Ba/F3 ERBB2-G776VC (Homo sapiens, UniProt P04626, DELINS776-776VC, cells depend on it); test: Cell viability assay (CellTiter Glo); format: cell-based, mouse; conditions: 72 hours; 3000 cells per well, 96-well plates; read-out: Cell viability IC50, nM, Ba/F3 ERBB2-G776VC
T10 construct: Ba/F3 cell lines were engineered to express human ERBB2 or EGFR kinases, rendering the cells IL-3 independent
Description: as §1, §2, §3, §4, §5, §6

[11] = tested on: A431 cells; test: Cell viability assay (CellTiter Glo); format: cell-based; conditions: Homo sapiens, A-431; 72 hours; 1500 cells per well, 384-well; DMEM + 10% FBS
Description: as §1, §2, §3, §4, §5, §6

[12] = tested on: BT-474 cells; test: Cell viability assay (CellTiter Glo); format: cell-based; conditions: Homo sapiens, 72 hours, 2000 cells per well, 384-well, DMEM + 10% FBS
Description: as §1, §2, §3, §4, §5, §6

[13] = tested on: MDA-MB-175VII cells; test: Cell viability assay (CellTiter Glo); format: cell-based; conditions: Homo sapiens, 72 hours, 2000 cells per well, 384-well, RPMI + 10% FBS
Description: as §1, §2, §3, §4, §5, §6

[14] = biological target: T11, phosphorylated EGFR (pEGFR) (Homo sapiens, UniProt P00533); test: Detection of phosphorylated EGFR (pEGFR) in EGF-stimulated A431 cells (AlphaLISA); format: cell-based; conditions: A431 cells (10% FBS), 4 hours with compound, then EGF 30 ng/mL for 10 minutes
T11 construct: endogenous in cells; host or cells: A431
Description: Enzyme-linked immunosorbent assays (ELISA) were performed to measure phosphorylated EGFR levels using A431 cells (10% FBS). A431 (1.0*10^4 cells/40 μl/well) cells were seeded in 384 well. Compounds were dissolved in DMSO, serially diluted in DMSO and then were added, mixed, and incubated for 4 hours at 37° C., 5% CO2. Following the 4-hours incubation, cells were stimulated for 10 minutes with EGF (Invitrogen, cat #PHG0311) at a final concentration of 30 ng/mL in the incubator. The media was aspirated and cells were lysed in 10 μL lysis buffer with protease and phosphatase inhibitors (PerkinElmer, cat #ALSU-PEGFR-A50K). The plates were placed on a shaker for 5 minutes and then incubated for 30 min at 4° C. for complete lysis. The lysate was transferred to an Optiplate (Perkin Elmer, cat #6007290).
Acceptor mix (PerkinElmer, cat #ALSU-PEGFR-A50K) was prepared just before use and 5 μL was dispensed to all the wells, followed by a 1.5-2 h incubation at room temperature in dark. The donor mix (PerkinElmer, cat #ALSU-PEGFR-A50K) was prepared under low light conditions prior to use and […] of donor mix was added to all the wells under subdued lighting or green filters. The plates were placed on a shaker for 5 min, sealed, and incubated overnight at room temperature in dark. Plates were read on the Envision (PerkinElmer) using standard AlphaLISA settings.
The percentage of inhibition on EGFR phosphorylation was calculated following equation: % Inhibition=100×(LumHC−LumSample)/(LumHC−LumLC). The low and high controls (LC/HC) are generated from lysate from wells with cells treated with DMSO or […] Staurosporine (BioAustralis, cat #BIA-S1086), […]. IC50 values were calculated by fitting the Curve using XLfit (v5.3.1.3), equation 201: Y=Bottom+(Top−Bottom)/(1+10^((LogIC50−X)*HillSlope)).

T2 sequence (P04626 23-1255): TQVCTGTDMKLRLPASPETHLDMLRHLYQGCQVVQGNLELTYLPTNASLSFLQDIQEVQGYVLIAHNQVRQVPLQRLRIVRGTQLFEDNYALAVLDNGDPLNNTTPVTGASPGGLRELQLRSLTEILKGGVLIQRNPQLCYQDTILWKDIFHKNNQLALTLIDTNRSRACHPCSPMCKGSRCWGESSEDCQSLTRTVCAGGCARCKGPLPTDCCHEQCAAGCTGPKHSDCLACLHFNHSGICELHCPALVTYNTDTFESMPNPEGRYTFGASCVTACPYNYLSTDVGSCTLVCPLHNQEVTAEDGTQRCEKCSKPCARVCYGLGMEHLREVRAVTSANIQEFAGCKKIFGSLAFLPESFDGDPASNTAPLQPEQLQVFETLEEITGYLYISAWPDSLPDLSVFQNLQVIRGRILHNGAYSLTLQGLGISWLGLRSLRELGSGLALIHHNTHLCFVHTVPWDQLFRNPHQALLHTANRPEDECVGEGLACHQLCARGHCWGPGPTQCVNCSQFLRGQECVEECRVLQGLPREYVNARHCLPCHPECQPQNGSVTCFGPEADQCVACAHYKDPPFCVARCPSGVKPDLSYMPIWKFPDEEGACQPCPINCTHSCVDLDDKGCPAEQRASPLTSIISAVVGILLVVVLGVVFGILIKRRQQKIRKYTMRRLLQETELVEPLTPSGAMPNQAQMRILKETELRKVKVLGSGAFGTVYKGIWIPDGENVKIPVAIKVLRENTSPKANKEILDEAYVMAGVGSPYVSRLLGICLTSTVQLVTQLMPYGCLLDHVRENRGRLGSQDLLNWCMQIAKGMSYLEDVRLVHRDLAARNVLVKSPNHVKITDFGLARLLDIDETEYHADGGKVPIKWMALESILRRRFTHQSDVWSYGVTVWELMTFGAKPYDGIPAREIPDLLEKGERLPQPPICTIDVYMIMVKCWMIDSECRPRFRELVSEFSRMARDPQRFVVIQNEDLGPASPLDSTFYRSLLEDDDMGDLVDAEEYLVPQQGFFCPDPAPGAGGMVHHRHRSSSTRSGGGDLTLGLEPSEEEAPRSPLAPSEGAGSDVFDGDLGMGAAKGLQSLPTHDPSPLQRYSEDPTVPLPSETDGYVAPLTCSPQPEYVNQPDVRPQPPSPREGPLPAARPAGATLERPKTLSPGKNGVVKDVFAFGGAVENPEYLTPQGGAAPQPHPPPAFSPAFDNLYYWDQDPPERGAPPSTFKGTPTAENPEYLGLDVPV
T10 sequence (P04626 with tags, fused parts or gaps DELINS776-776VC): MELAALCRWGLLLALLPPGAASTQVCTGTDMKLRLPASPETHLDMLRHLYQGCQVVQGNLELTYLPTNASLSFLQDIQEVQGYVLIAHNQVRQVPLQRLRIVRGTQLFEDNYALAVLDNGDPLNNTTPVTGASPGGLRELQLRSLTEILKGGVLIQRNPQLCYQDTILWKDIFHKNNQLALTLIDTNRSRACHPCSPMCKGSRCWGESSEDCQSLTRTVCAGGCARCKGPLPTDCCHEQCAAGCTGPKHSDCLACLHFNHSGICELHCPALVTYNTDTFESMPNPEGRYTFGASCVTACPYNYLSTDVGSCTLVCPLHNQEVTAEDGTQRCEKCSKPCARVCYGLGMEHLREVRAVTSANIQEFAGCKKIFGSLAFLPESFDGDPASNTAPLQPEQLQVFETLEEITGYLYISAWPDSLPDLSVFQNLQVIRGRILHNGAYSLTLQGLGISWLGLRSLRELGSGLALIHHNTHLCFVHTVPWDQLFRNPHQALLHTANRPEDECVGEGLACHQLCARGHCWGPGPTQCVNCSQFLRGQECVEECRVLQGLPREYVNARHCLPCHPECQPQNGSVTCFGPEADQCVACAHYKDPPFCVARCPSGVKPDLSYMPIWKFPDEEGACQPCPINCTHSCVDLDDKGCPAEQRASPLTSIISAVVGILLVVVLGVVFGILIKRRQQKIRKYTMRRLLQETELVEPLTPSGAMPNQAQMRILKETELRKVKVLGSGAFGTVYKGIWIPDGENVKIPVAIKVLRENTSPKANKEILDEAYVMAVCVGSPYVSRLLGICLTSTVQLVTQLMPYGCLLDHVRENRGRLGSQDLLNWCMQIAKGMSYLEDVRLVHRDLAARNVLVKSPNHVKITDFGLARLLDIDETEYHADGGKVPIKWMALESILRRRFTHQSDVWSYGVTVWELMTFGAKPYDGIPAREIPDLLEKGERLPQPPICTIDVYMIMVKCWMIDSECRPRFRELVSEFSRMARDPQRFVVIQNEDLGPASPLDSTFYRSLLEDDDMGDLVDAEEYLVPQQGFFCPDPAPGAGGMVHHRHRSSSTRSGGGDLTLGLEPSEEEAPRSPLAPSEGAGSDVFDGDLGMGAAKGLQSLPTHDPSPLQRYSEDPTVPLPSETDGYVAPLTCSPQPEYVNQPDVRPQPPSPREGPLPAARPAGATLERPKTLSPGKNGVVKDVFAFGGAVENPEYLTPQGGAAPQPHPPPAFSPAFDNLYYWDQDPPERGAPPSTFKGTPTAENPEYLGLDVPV
T5 sequence (P04626 whole entry L755S): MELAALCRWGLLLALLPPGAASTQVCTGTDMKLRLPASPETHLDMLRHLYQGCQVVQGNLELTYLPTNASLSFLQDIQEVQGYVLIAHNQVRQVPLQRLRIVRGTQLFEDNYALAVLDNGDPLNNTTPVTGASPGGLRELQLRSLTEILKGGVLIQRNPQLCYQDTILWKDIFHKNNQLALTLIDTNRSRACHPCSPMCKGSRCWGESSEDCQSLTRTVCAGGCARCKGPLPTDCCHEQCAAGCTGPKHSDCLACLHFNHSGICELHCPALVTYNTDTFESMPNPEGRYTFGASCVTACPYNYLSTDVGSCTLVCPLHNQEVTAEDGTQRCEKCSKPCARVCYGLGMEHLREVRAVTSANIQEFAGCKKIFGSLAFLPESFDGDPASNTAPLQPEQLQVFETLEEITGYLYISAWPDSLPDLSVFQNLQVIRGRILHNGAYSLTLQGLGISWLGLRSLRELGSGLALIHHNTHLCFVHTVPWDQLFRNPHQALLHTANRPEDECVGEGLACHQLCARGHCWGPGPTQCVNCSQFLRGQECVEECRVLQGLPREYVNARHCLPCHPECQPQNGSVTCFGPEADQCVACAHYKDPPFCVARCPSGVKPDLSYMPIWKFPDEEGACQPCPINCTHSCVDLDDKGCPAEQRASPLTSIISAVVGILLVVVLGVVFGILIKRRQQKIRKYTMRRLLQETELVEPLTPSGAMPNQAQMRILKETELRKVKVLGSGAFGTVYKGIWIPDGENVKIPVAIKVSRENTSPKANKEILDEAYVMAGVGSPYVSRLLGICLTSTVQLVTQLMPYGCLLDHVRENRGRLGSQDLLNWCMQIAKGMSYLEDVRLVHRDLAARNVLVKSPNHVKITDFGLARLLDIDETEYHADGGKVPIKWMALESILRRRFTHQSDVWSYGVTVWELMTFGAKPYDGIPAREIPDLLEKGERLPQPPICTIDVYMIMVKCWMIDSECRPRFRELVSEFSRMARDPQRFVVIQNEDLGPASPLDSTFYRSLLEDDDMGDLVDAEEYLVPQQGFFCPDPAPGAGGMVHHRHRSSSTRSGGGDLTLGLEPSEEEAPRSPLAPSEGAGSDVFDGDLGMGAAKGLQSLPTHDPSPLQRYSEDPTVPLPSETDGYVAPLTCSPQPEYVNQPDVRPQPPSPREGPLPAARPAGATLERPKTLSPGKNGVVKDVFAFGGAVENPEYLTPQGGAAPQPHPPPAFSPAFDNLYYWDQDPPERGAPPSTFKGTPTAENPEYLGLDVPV
T4 sequence (P04626 with tags, fused parts or gaps INS778CG): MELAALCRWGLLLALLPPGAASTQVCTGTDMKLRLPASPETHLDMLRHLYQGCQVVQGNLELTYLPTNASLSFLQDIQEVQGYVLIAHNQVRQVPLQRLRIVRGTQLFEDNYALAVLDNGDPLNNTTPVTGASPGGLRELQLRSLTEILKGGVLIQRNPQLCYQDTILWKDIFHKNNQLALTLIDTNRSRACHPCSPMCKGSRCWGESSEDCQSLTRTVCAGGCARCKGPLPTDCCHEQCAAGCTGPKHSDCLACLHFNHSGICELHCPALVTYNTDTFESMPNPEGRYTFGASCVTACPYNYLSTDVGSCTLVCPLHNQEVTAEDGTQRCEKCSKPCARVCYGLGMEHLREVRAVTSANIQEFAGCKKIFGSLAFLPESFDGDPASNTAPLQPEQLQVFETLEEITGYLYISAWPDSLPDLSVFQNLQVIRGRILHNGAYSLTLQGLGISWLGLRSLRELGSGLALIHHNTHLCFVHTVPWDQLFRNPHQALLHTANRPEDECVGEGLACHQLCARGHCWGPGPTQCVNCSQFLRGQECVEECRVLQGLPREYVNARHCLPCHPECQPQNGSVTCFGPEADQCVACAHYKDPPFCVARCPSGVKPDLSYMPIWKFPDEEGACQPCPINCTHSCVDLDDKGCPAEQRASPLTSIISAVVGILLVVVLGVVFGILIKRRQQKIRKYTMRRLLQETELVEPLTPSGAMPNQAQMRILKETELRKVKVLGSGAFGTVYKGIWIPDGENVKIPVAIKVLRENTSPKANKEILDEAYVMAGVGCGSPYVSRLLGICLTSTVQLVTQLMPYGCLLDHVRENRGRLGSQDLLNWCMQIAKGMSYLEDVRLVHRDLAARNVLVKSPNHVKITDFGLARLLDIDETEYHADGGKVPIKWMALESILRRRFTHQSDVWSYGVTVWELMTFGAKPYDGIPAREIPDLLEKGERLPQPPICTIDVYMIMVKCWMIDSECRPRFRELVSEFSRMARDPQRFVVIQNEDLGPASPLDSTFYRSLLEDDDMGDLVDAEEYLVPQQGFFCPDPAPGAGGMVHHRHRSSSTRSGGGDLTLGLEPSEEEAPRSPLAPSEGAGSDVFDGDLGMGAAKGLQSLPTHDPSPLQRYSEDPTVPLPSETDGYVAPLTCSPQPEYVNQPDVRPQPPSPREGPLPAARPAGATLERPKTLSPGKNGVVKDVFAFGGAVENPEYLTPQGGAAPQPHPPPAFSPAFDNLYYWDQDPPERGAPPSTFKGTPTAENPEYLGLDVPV

CC#CC(=O)Nc1ccc2ncnc(Nc3ccc(Oc4ccc(C)nc4)cc3)c2c1 [Compound 9, N-[4-([4-[(6-methylpyridin-3-yl)oxy]phenyl]amino)quinazolin-6-yl]but-2-ynamide]
GI50 [1]: 5.5 nM
IC50 [2]: 43.9 nM
GI50 [3]: 239 nM
GI50 [4]: 2.4 nM
GI50 [5]: 35 nM
GI50 [6]: 20 nM
GI50 [7]: 5.7 nM
GI50 [8]: 4.1 nM
GI50 [9]: 15 nM
GI50 [10]: 21 nM
IC50 [11]: 454 nM
IC50 [12]: 12.3 nM
IC50 [13]: 142 nM

CC#CC(=O)Nc1ccc2ncnc(Nc3ccc(Oc4cnc(C)cn4)cc3)c2c1 [Compound 10, N-[4-([4-[(5-methylpyrazin-2-yl)oxy]phenyl]amino)quinazolin-6-yl]but-2-ynamide]
GI50 [1]: 16 nM
IC50 [2]: 74.9 nM
GI50 [3]: 220 nM
GI50 [4]: 9.3 nM
GI50 [5]: 81 nM
GI50 [6]: 49 nM
GI50 [7]: 13.1 nM
GI50 [8]: 7.3 nM
GI50 [9]: 15 nM
GI50 [10]: 81 nM
IC50 [11]: 1080 nM
IC50 [12]: 35.5 nM
IC50 [13]: 232 nM

Cc1cc(Nc2ncnc3cc(OCCO)c(NC(=O)C#CC4CC4)cc23)ccc1Oc1ccn2ncnc2c1 [Compound 168, 3-cyclopropyl-N-[7-(2-hydroxyethoxy)-4-[(3-methyl-4-[[1,2,4]triazolo[1,5-a]pyridin-7-yloxy]phenyl)amino]quinazolin-6-yl]prop-2-ynamide]
IC50 [2]: 17 nM
IC50 [14]: 70.9 nM
IC50 [12]: 2.17 nM
